Laboratory results taken from patent US20090088371A1, “COMBINATION THERAPY WITH SYK KINASE INHIBITOR” (Rigel Pharmaceuticals, Inc., priority 2007, published 2009).
“And” between values parts separate entries of the source, which are not always exact repeats. Equal values may be shown once. “Also recorded” adds a separate entry of the source.

How the values were obtained:
[1] = tested on: C57BL/6 mice; test: Anti-CD41 antibody-induced thrombocytopenia in C57BL/6 mice, platelet counts (Examples 1 and 3, FIG. 1); format: in vivo, mouse; conditions: for Platelet count versus mice treated with CD41 antibody alone: first dose 30 minutes prior to platelet-depleting antibody, 24 h
Description: On Day 1 of each study, mice were rendered thrombocytopenic by injection with rat anti-mouse CD41 antibody (IgG1, Clone MWReg30) by the intraperitoneal (IP) route. The platelet depleting antibody (rat anti-mouse GPIIb, also referred to as anti-integrin αIIb or anti-CD41) was administered […] treatment with Compound I on Day 1. Mice in control groups either received nothing (naïve), saline only, or an isotype-matched irrelevant control antibody (nonspecific rat anti-mouse IgG1, Clone R3-34, BD, San Jose, Calif.).
Mice received vehicle or Compound 1 at various dose levels (0, 20, 40, or 80 mg/kg, PO, 5 mL/kg) 30 minutes prior to the platelet depleting antibody, then again 8 h, 16 h, and 23 h after induction of thrombocytopenia. At 24 h after administration of the anti-CD41 platelet-depleting antibody, blood was harvested from all groups by cardiocentesis to assess the platelet counts or drug levels in the plasma. An aliquot from each sample was transferred to a plasma separator tube and the separated plasma was stored at −80° C. for analysis. Blood was placed indirectly on ice for delivery. Platelet enumeration was performed using Bayer Advia 120 Bayer Advia 120 hematology system (Bayer, Tarrytown, N.Y.) by Quality Clinical Laboratories (QCL, Mountain View, Calif.).
Systemic drug exposures were determined at sacrifice with the final dose being given on the evening of Day 1 (8 h prior to blood collection) or on the morning of Day 2 (1 h prior to blood collection). Satellite animals treated with Compound 1 and not receiving platelet-depleting antibody were added to obtain a more complete PK profile.
Significant differences between vehicle and Compound I-treated groups were determined statistically using the GraphPad Prism 4.0® software package, unless otherwise stated. In general, Prism 4.0® uses the standard calculations as detailed in D. G. Altman, Practical Statistics for Medical Research, 1991, Chapman and Hall. Platelet count data was analyzed using Kruskal Wallis Nonparametric test with Dunn's multiple group post-hoc test to compare the rank sums, unless otherwise noted.
In FIG. 1, each data point represents platelet counts for an individual mouse administered a single IP injection of 5 μg of CD41 platelet depleting antibody (n=11-12 per group). Mice were bled 24 hours post antibody administration and platelet counts were performed using Bayer Advia 120 analyzer. Mice were given vehicle or indicated doses of Compound 1. Platelet-depleting antibody was administered 30 minutes after the first Compound 1 or vehicle dose on Day 1.

[2] = tested on: CD-1 mice; test: Antibody-mediated thrombocytopenia in CD-1 mice, platelet counts by flow cytometry (Examples 2 and 4, FIG. 2, Table 1); format: in vivo, mouse; conditions: for Individual Animal Platelet Count / Platelet Count Mean: 24 hours following anti-αIIb treatment; for Individual Animal Platelet Count: one value per animal; for Platelet Count Mean: n=6
Description: CD-1 mice, approximately 10 weeks of age, were obtained from Charles River (Montreal, PQ, Canada). All mice, with the exception of the naïve group, were injected with 2 μg rat anti-mouse GPIIb (also referred to as anti-integrin αIIb or anti-CD41) antibody (specific for GPIIb, clone MWReg30, rat IgG1, κ, PharMingen, Missassuaga, ON, Canada) in 200 μL PBS on Day 1. Platelets were enumerated on Day 2 (24 hours following injection of anti-platelet antibody).
During the 3 day experiment (Day O— Day 2), Compound I-treated mice were given the indicated doses of Compound 1 by oral gavage once on Day 0, twice on Day 1 and once on Day 2. Control animals were given an equal volume of vehicle. For the IVIg group, mice were injected intraperitoneally (IP) with 2 g/kg Gamunex IVIg (Bayer, Elkhart, Ill.) once on Day 0. Two concentrations of Compound 1 (3.08 and 4.94 mg/mL) were formulated with 0.1% CMC Na-0.1% Methylparaben-0.02% Propylparaben-H2O. One day prior to platelet depletion, treatment began. Mice were treated orally twice daily (bid.) with Compound 1 (30.8 or 49.4 mg/kg of body weight per dose, n=6) at a dose volume of 10 mL/kg. IVIg (2 g/kg) was used as a reference agent and was administered IP as described previously (Crow et al., 2003).
Two hours following the last treatment of Compound 1 on Day 2, all mice were bled via the saphenous vein; 50 μL of blood was collected into 450 μL PBS/1% EDTA. The blood was further diluted to a final dilution of 1/12,000 in PBS/1% EDTA. Platelets were enumerated by flow cytometry according to Crow et al., 2001. Briefly, the samples were acquired for 2 minutes on a flow-rate-calibrated FACScan flow cytometer (Becton-Dickinson, San Jose, Calif.), using forward scatter (FSC) versus side scatter (SSC) to gate platelets.
All values in the text and figures are expressed as mean±standard error of the mean (SEM) for n=6 mice/group unless noted otherwise, and n represents the number of mice. Differences between treatment and control groups were compared using the 2-tailed Student's t-test using GraphPad Prism Inc., software ver. 4.0 (San Diego, Calif., USA).
On Day 0, mice were pre-treated with nothing (Nil), 0.25 mL Vehicle twice (8 hrs apart) or the indicated doses of Compound 1 (in 0.25 mL vehicle) or 2 g/kg IVIg. On Day 1, the above treatments were repeated except for IVIg. All mice also received 2 μg anti-platelet antibody on Day 1. On Day 2, all mice were bled for platelet enumeration by flow cytometry as described. n=6 mice per group. Data are expressed as mean±SEM.

COc1cc(Nc2ncc(F)c(Nc3ccc4c(n3)N(COP(=O)(O)O)C(=O)C(C)(C)O4)n2)cc(OC)c1OC [Compound 1]
Platelet count versus the 80 mg/kg group ([1]; 20 mg/kg PO with platelet depleting antibody, p<0.01): significantly lower
Platelet count versus mice treated with CD41 antibody alone ([1]; 40 mg/kg PO, p<0.05): significantly higher platelet count
Platelet count versus mice treated with CD41 antibody alone ([1]; 80 mg/kg PO, p<0.001): significantly higher platelet count
Dose dependence of inhibition of platelet depletion ([1]; 20, 40, 80 mg/kg PO, C57BL/6 mice): dose-dependent inhibition of platelet depletion
Inhibition of platelet depletion compared with vehicle alone ([2]; 30.8 mg/kg group, p=0.001, Day 2): highly significant
Inhibition of platelet depletion compared with vehicle alone ([2]; 49.4 mg/kg group, p=0.008, Day 2): highly significant
Dose dependence of the effect on platelet counts ([2]; 30.8 versus 49.4 mg/kg, difference not significant (p=0.9)): did not appear to be dose-dependent
Individual Animal Platelet Count ([2]; Compound 1 30.8 mg/kg oral gavage, CD-1 mice, 30.8 mg/kg): 3.92e+11 L⁻¹ and 3.98e+11 L⁻¹ and 4.57e+11 L⁻¹ and 5.84e+11 L⁻¹ and 6.02e+11 L⁻¹ and 6.79e+11 L⁻¹
Platelet Count Mean ([2]; Compound 1 30.8 mg/kg oral gavage): 5.19e+11 L⁻¹
Individual Animal Platelet Count ([2]; Compound 1 49.4 mg/kg oral gavage, CD-1 mice, 49.4 mg/kg): 4.11e+11 L⁻¹ and 4.37e+11 L⁻¹ and 4.33e+11 L⁻¹ and 4.98e+11 L⁻¹ and 9.31e+11 L⁻¹ and 5.1e+11 L⁻¹
Platelet Count Mean ([2]; Compound 1 49.4 mg/kg oral gavage): 5.37e+11 L⁻¹
Effect on platelet depletion by anti-platelet antibody ([2]; Compound 1 treatment prior to and following CD41 platelet depleting antibody, CD-1 mice, Day 2): reduced depletion of platelets; also recorded: inhibited the reduction in platelet count
